The numbers were not newly measured in patent publication US8679548B2, “Active bromine containing biocidal compositions and their preparation” (Albemarle Corporation, priority 1998, dated 2014), which cites them from elsewhere.

Each structure is given as a SMILES string.

Take `BrBr` [Bromine (Br2), Bromine]: the “Vapor Pressure (25° C.)” value is recorded as 214 mm.
In the case of `ClBr` [Bromine Chloride (BrCl), Bromine Chloride], the “Vapor Pressure (25° C.)” value is 1800 mm.
